Where a SMILES comes first, the peptide text is derived from it. [ ]: non-standard residue; d: D form. The star is where a group is joined. NH(CH2)3NH(1-anthraquinonyl) = O=C1c2ccccc2C(=O)c2c(NCCCN*)cccc21; Nle = CCCC[C@H](N)C(=O)O; Nva = CCC[C@H](N)C(=O)O; Mob = COc1ccc(C*)cc1

For orientation: melting point means the temperature, or range, at which the solid turns liquid.

The compound `CSC[C@H](NC(=O)[C@H](Cc1ccc(O)cc1)NC(=O)[C@H](C)N)C(=O)NCC(=O)N[C@@H](CC(C)C)C(=O)N1CCC[C@H]1C(=O)NCCCNc1cccc2c1C(=O)c1ccccc1C2=O.O=C(O)C(F)(F)F` (H-AYC(Me)GLP-{NH(CH2)3NH(1-anthraquinonyl)}) came in with a melting point of 166 to 170 °C.
In turn, `CCC[C@H](NC(=O)CNC(=O)[C@H](CC(C)C)NC(=O)[C@H](C)NC(=O)[C@H](C)NC(=O)[C@@H](C)N)C(=O)N1CCC[C@H]1C(=O)NCCCNc1cccc2c1C(=O)c1ccccc1C2=O.O=C(O)C(F)(F)F` had a melting point of 192 to 196 °C.
In turn, `CC(C)C[C@H](NC(=O)CNC(=O)[C@H](C)N)C(=O)N[C@@H](C)C(=O)N[C@@H](CC(C)C)C(=O)N1CCC[C@H]1C(=O)NCCCNc1cccc2c1C(=O)c1ccccc1C2=O.O=C(O)C(F)(F)F` (H-AGLALP-{NH(CH2)3NH(1-anthraquinonyl)}) returned a melting point of 185 °C.
As for `CCC[C@H](NC(=O)[C@H](C)N)C(=O)N[C@@H](CC(C)C)C(=O)NCC(=O)N[C@@H](CC(C)C)C(=O)N1CCC[C@H]1C(=O)NCCCNc1cccc2c1C(=O)c1ccccc1C2=O.O=C(O)C(F)(F)F` (H-A[Nva]LGLP-{NH(CH2)3NH(1-anthraquinonyl)}), the melting point came to 192 °C.
As for `CC[C@H](C)[C@H](NC(=O)[C@H](Cc1ccccc1)NC(=O)[C@H](CC(C)C)NC(=O)[C@@H](C)N)C(=O)NCC(=O)N[C@@H](Cc1ccccc1)C(=O)N1CCC[C@@H]1C(=O)NCCCNc1cccc2c1C(=O)c1ccccc1C2=O.O=C(O)C(F)(F)F`, the figure is 144 to 146 °C; as for `CCCC[C@H](N)C(=O)NCC(=O)N[C@@H](CC(C)C)C(=O)N1CCC[C@H]1C(=O)NCCCNc1cccc2c1C(=O)c1ccccc1C2=O.O=C(O)C(F)(F)F` (H-[Nle]GLP-{NH(CH2)3NH(1-anthraquinonyl)}), 169 °C.
As for `CC(C)C[C@H](NC(=O)CNC(=O)[C@H](C)NC(=O)[C@@H](C)N)C(=O)N[C@@H](Cc1ccccc1)C(=O)N[C@@H](CC(C)C)C(=O)N1CCC[C@H]1C(=O)NCCCNc1cccc2c1C(=O)c1ccccc1C2=O.O=C(O)C(F)(F)F`, the figure is 190 to 194 °C.
As for `CCC[C@H](N)C(=O)NCC(=O)N[C@@H](CC(C)C)C(=O)N1CCC[C@H]1C(=O)NCCCNc1cccc2c1C(=O)c1ccccc1C2=O.O=C(O)C(F)(F)F` (H-[Nva]GLP-{NH(CH2)3NH(1-anthraquinonyl)}), the figure is 210 °C.
`CC(C)C[C@H](NC(=O)[C@H](Cc1ccccc1)NC(=O)CN)C(=O)NCC(=O)N1CCC[C@H]1C(=O)NCCCNc1cccc2c1C(=O)c1ccccc1C2=O.O=C(O)C(F)(F)F` showed a melting point of 157 °C.
As for `CCC[C@H](NC(=O)[C@H](Cc1ccc(O)cc1)NC(=O)[C@H](C)N)C(=O)NCC(=O)N[C@@H](CC(C)C)C(=O)N1CCC[C@H]1C(=O)NCCCNc1cccc2c1C(=O)c1ccccc1C2=O.O=C(O)C(F)(F)F` (H-AY[Nva]GLP-{NH(CH2)3NH(1-anthraquinonyl)}), the figure is 182 °C; as for `CC[C@H](C)[C@H](NC(=O)[C@@H](N)Cc1ccccc1)C(=O)NCC(=O)N[C@@H](Cc1ccccc1)C(=O)N1CCC[C@@H]1C(=O)NCCCNc1cccc2c1C(=O)c1ccccc1C2=O.O=C(O)C(F)(F)F`, 130 to 134 °C; as for `CC[C@H](C)[C@H](NC(=O)[C@H](Cc1ccccc1)NC(=O)[C@@H](N)CC(C)C)C(=O)NCC(=O)N[C@@H](Cc1ccccc1)C(=O)N1CCC[C@@H]1C(=O)NCCCNc1cccc2c1C(=O)c1ccccc1C2=O.O=C(O)C(F)(F)F`, 168 to 170 °C.
With `CCC[C@H](NC(=O)CN)C(=O)N1CCC[C@H]1C(=O)NCCCNc1cccc2c1C(=O)c1ccccc1C2=O.O=C(O)C(F)(F)F` the figure was 196 °C.
As for `CSC[C@H](NC(=O)[C@H](Cc1ccc(O)cc1)NC(=O)[C@H](C)NC(=O)[C@@H](C)N)C(=O)NCC(=O)N[C@@H](CC(C)C)C(=O)N1CCC[C@H]1C(=O)NCCCNc1cccc2c1C(=O)c1ccccc1C2=O.O=C(O)C(F)(F)F`, the figure is 195 °C.
In the case of `CC(C)C[C@H](NC(=O)[C@H](Cc1ccc(O)cc1)NC(=O)[C@H](C)N)C(=O)NCC(=O)N[C@@H](CC(C)C)C(=O)N1CCC[C@H]1C(=O)NCCCNc1cccc2c1C(=O)c1ccccc1C2=O.O=C(O)C(F)(F)F` (H-AYLGLP-{NH(CH2)3NH(1-anthraquinonyl)}), the melting point worked out at 182 °C.
As for `CCC[C@H](N)C(=O)N[C@@H](CC(C)C)C(=O)NCC(=O)N[C@@H](CC(C)C)C(=O)N1CCC[C@H]1C(=O)NCCCNc1cccc2c1C(=O)c1ccccc1C2=O.O=C(O)C(F)(F)F` (H-[Nva]LGLP-{NH(CH2)3NH(1-anthraquinonyl)}), the figure is 189 °C; as for `CCCC[C@H](NC(=O)[C@H](C)N)C(=O)NCC(=O)N[C@@H](CC(C)C)C(=O)N1CCC[C@H]1C(=O)NCCCNc1cccc2c1C(=O)c1ccccc1C2=O.O=C(O)C(F)(F)F` (H-A[Nle]GLP-{NH(CH2)3NH(1-anthraquinonyl)}), 185 °C.
With `CSC[C@H](NC(=O)[C@H](C)NC(=O)[C@H](C)N)C(=O)NCC(=O)N[C@@H](CC(C)C)C(=O)N1CCC[C@H]1C(=O)NCCCNc1cccc2c1C(=O)c1ccccc1C2=O.O=C(O)C(F)(F)F` (H-AAC(Me)GLP-{NH(CH2)3NH(1-anthraquinonyl)}) the figure was 162 °C; with `NCCCNc1cccc2c1C(=O)c1ccccc1C2=O`, 196 °C; with `CC(C)C[C@H](NC(=O)[C@H](Cc1ccccc1)NC(=O)[C@@H](N)CC(C)C)C(=O)N1CCC[C@H]1C(=O)NCCCNc1cccc2c1C(=O)c1ccccc1C2=O.O=C(O)C(F)(F)F` (H-LFLP-{NH(CH2)3NH(1-anthraquinonyl)}), 184 to 186 °C.
As for `CCC[C@H](NC(=O)CNC(=O)[C@H](CC(C)C)NC(=O)[C@H](C)NC(=O)[C@H](C)N)C(=O)N1CCC[C@H]1C(=O)NCCCNc1cccc2c1C(=O)c1ccccc1C2=O.O=C(O)C(F)(F)F` (H-AALG[Nva]P-{NH(CH2)3NH(1-anthraquinonyl)}), the figure is 188 °C; as for `CC(C)C[C@H](N)C(=O)NCC(=O)N1CCC[C@H]1C(=O)NCCCNc1cccc2c1C(=O)c1ccccc1C2=O.O=C(O)C(F)(F)F`, 172 to 174 °C; as for `CCC[C@H](NC(=O)CNC(=O)[C@H](CC(C)C)NC(=O)[C@H](C)N)C(=O)N1CCC[C@H]1C(=O)NCCCNc1cccc2c1C(=O)c1ccccc1C2=O.O=C(O)C(F)(F)F` (H-ALG[Nva]P-{NH(CH2)3NH(1-anthraquinonyl)}), 176 to 178 °C.
Turning to `CC(C)C[C@H](NC(=O)[C@H](Cc1ccccc1)NC(=O)CN)C(=O)NCC(=O)N1CCC[C@@H]1C(=O)NCCCNc1cccc2c1C(=O)c1ccccc1C2=O.O=C(O)C(F)(F)F`, the melting point was 154 to 156 °C.
Take `CCC[C@H](N)C(=O)N1CCC[C@H]1C(=O)NCCCNc1cccc2c1C(=O)c1ccccc1C2=O.O=C(O)C(F)(F)F`: the melting point was in the range of 190 to 194 °C.
With `CCC[C@H](NC(=O)[C@H](C)NC(=O)[C@@H](C)N)C(=O)N[C@@H](CC(C)C)C(=O)NCC(=O)N[C@@H](CC(C)C)C(=O)N1CCC[C@H]1C(=O)NCCCNc1cccc2c1C(=O)c1ccccc1C2=O.O=C(O)C(F)(F)F` the figure was 174 to 178 °C; with `NCC(=O)N[C@@H](Cc1ccccc1)C(=O)N1CCC[C@@H]1C(=O)NCCCNc1cccc2c1C(=O)c1ccccc1C2=O.O=C(O)C(F)(F)F`, 128 to 130 °C.
With `CSC[C@H](NC(=O)[C@H](C)NC(=O)[C@H](C)NC(=O)[C@@H](C)N)C(=O)NCC(=O)N[C@@H](CC(C)C)C(=O)N1CCC[C@H]1C(=O)NCCCNc1cccc2c1C(=O)c1ccccc1C2=O.O=C(O)C(F)(F)F` the figure was 191 °C; with `CC(C)C[C@H](NC(=O)[C@H](Cc1ccc(O)cc1)NC(=O)[C@H](C)NC(=O)[C@@H](C)N)C(=O)NCC(=O)N[C@@H](CC(C)C)C(=O)N1CCC[C@H]1C(=O)NCCCNc1cccc2c1C(=O)c1ccccc1C2=O.O=C(O)C(F)(F)F`, 190 to 194 °C; with `CC(C)C[C@H](NC(=O)[C@H](C)N)C(=O)N1CCC[C@H]1C(=O)NCCCNc1cccc2c1C(=O)c1ccccc1C2=O.O=C(O)C(F)(F)F`, 170 to 174 °C.
For the compound `CC(C)C[C@H](NC(=O)[C@H](C)NC(=O)[C@H](C)NC(=O)[C@H](N)CCCCN)C(=O)NCC(=O)N[C@@H](CC(C)C)C(=O)N1CCC[C@H]1C(=O)NCCCNc1cccc2c1C(=O)c1ccccc1C2=O.O=C(O)C(F)(F)F.O=C(O)C(F)(F)F`, the melting point came to 196 °C.
With `CCC[C@H](NC(=O)[C@@H](N)Cc1ccc(O)cc1)C(=O)NCC(=O)N[C@@H](CC(C)C)C(=O)N1CCC[C@H]1C(=O)NCCCNc1cccc2c1C(=O)c1ccccc1C2=O.O=C(O)C(F)(F)F` (H-Y[Nva]GLP-{NH(CH2)3NH(1-anthraquinonyl)}) the figure was 174 °C; with `COc1ccc(CSC[C@H](NC(=O)[C@H](C)NC(=O)[C@H](C)N)C(=O)NCC(=O)N[C@@H](CC(C)C)C(=O)N2CCC[C@H]2C(=O)NCCCNc2cccc3c2C(=O)c2ccccc2C3=O)cc1.O=C(O)C(F)(F)F` (H-AAC(Mob)GLP-{NH(CH2)3NH(1-anthraquinonyl)}), 182 °C.
As for `CCC[C@H](NC(=O)[C@H](C)NC(=O)[C@H](C)N)C(=O)NCC(=O)N[C@@H](CC(C)C)C(=O)N1CCC[C@H]1C(=O)NCCCNc1cccc2c1C(=O)c1ccccc1C2=O.O=C(O)C(F)(F)F` (H-AA[Nva]GLP-{NH(CH2)3NH(1-anthraquinonyl)}), the figure is 197 °C; as for `NCC(=O)N1CCC[C@@H]1C(=O)NCCCNc1cccc2c1C(=O)c1ccccc1C2=O.O=C(O)C(F)(F)F`, 156 to 162 °C; as for `CC[C@H](C)[C@H](N)C(=O)NCC(=O)N[C@@H](Cc1ccccc1)C(=O)N1CCC[C@@H]1C(=O)NCCCNc1cccc2c1C(=O)c1ccccc1C2=O.O=C(O)C(F)(F)F`, 120 to 126 °C.
`CC(C)C[C@H](NC(=O)[C@@H](N)Cc1ccc(O)cc1)C(=O)NCC(=O)N[C@@H](CC(C)C)C(=O)N1CCC[C@H]1C(=O)NCCCNc1cccc2c1C(=O)c1ccccc1C2=O.O=C(O)C(F)(F)F` (H-YLGLP-{NH(CH2)3NH(1-anthraquinonyl)}) showed a melting point of 184 to 188 °C.
With `COc1ccc(CSC[C@H](N)C(=O)NCC(=O)N[C@@H](CC(C)C)C(=O)N2CCC[C@H]2C(=O)NCCCNc2cccc3c2C(=O)c2ccccc2C3=O)cc1.O=C(O)C(F)(F)F` (H-C(Mob)GLP-{NH(CH2)3NH(1-anthraquinonyl)}) the figure was 182 °C.

(Values after patent US20040248765A1, “Tumour targeting prodrugs activated by metallo matrixproteinases” (priority 2001, published 2004).)
